Results on 1 compound are retold here after US7465469B2, “Microbiocidal formulation comprising essentials oils or their derivatives” (State of Israel, Ministry of Agriculture & Rural …, priority 2001, dated 2008).

Test [1] relates to Penicillium digitatum. Nature of the test: Decay of Penicillium-inoculated grapefruit after 2-minute dip. The following applies: 25% Ethanol dip; three weeks after inoculation. The test is classed as in vivo, Penicillium digitatum on grapefruit. An excerpt:
Unblemished grapefruit were harvested from the orchard and on the same day sorted again in the laboratory to eliminate injured fruit. The grapefruit were washed with tap water and air-dried. Each fruit was then inoculated by piercing its flavedo tissue 1.5 mm deep with a tool incorporating three needles at three different sites. Prior to each piercing, the tool was immersed in a spore suspension of Penicillium digitatum (10^6 spores/ml).

The subject of another test is kumquat fruit. Put plainly: Decay of uninoculated kumquat fruit after storage and shelf life simulation. The test is classed as in vivo. The following applies: 11 days at 10° C. and shelf life at 20° C. for 6 days; limonene 5000 μL L^−1 exposed to sunlight for 3 hours in 25% ethanol + 5000 μL L^−1 TWEEN 20. As for the experimental part: Exposure to sunlight or irradiation of the dichloromethane or hexane extract of lemon flavedo should be conducted for 3 to 6 hours. The efficiency of the extract hydroperoxide formulation as a biocidal composition grows with longer periods of exposure of the fruit to the hydroperoxide solution. […] The effect of exposure of limonene to 3 hours of sunlight and its efficiency as preventing decay compared to no treatment (dipping in water) or treatment with an ethanol solution (25%) are summarized in Table 4 in a commercial like experiment with uninoculated fruit.

Test [2] has as its system non-inoculated Washington oranges. Put plainly: Decay percentage of non-inoculated Washington oranges during storage. The test is classed as in vivo, Washington navel oranges. As for the experimental part:
Non-inoculated Washington navel oranges were divided into […] groups which were treated as follows: (a) no treatment; (b) dipped in 50% Ethanol; (c) dipped in 0.2% Citral in 0.02% L-77 Emulsifier (aqueous emulsion); (d) dipped in 0.2% Citral in 50% Ethanol; and (e) dipped in a 0.2% aqueous Imazalil solution.
Oranges were then stored for four months at 15° C. in 50-75% relative humidity and the percentage of rotten fruit in each group was measured at different time periods after storage.

Test [3] concerns Penicillium digitatum. Nature of the test: Decay of lemons inoculated with Penicillium 10^4 spores/ml and dipped. In kind it is in vivo, Penicillium digitatum on lemons. Particulars: inoculated lemons dipped a day after inoculation, kept 6 days at 20° C.
Protocol: Lemon fruit flavedo (exocarp) was taken and extracted overnight in dichloromethane, then exposed to sunlight for about 18 hours until the color of the dichloromethane extract turned brown. The flavedo was blended and filtered through a layer of Whatman paper. The extracted solution was evaporated to remove the dichloromethane and the dense liquor was further separated by chromatography with a silica 60 column using dichloromethane as a carrier. Two fractions of dichloromethane, one green and the other colorless, were obtained after chromatography. The crude active extract was isolated by evaporation of the green dichloromethane fraction. […] Effect of the compounds on pathogen development on the fruit was checked daily during storage.
The antifungal activity of the products prepared in the two different routes was checked in the same method. […] Decay was evaluated at specific intervals during a period of 26 days.
Lemons inoculated with Penicillium (10^4 spores/ml) were dipped in an aqueous solution comprising citral, a detergent (Tween 20), other essential oil components as well as a dichloromethane crude extract of lemon flavedo exposed to sunlight. Decay was evaluated at specific intervals during a period of 20 days.
Pure limonene was exposed to sunlight for three hours. […]

In the case of `CCO` [Ethanol 25%, Ethanol], the fruit rotten result in the test on Penicillium digitatum [1] is “more than 50%”. Also, in the test with kumquat fruit, the “Decay of kumquat fruit, End of storage” value is given as 7.9 ab. Also, the “% of rotten fruit” value in test [2] (0.5 months of storage at 15° C.) turned out to be 0%; in test [2] (1 month of storage at 15° C.), 4%; in test [2] (2 months of storage at 15° C.), 14%; in test [2] (3 months of storage at 15° C.), 20%; in test [2] (4 months of storage at 15° C.), 23%. The “% Decay” value with Penicillium digitatum [3] came to 30%.
